In one assay the test system is COLO-679 (Melanoma). Kind of assay: Bliss excess, mean over the matrix (fraction); higher = more synergy. The procedure, abridged:
(§1)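 Bliss excess equals the observed combination effect minus the expected value EA + EB − EA·EB, where EA and EB are the effects of each agent alone. Combination Emax is the second-highest inhibition within the matrix. Inhibition was scaled from CellTiter-Glo 2.0 luminescence, with 0 set by vehicle wells and 1 by blank wells, after 72 hours of two-drug dosing of cells plated in 1536-well plates.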

Assay [1] deals with DU-145 (Prostate Carcinoma). Described as above. The procedure, abridged: as §1
Assay [2] concerns KGN (Other Solid Carcinomas). Described as above. The procedure, abridged: as §1
Assay [3] deals with MV-4-11 (Acute Myeloid Leukemia). The description is as above. A digest of the protocol: as §1
Assay [4] concerns SNU-387 (Hepatocellular Carcinoma). Described as above. The procedure, abridged: as §1
Assay [5] deals with Ca-Ski (Cervical Carcinoma). The experiment in a line: combination Emax (second highest fraction inhibited in the dose matrix, 72 h); higher = more inhibition; extreme values may be limits of the assay. The procedure, abridged:
as §1

The test system of assay [6] is EFO-21 (Ovarian Carcinoma). The assay is described as above. A digest of the protocol:
as §1

Assay [7] deals with KGN (Other Solid Carcinomas). Described as above. A digest of the protocol:
as §1

The subject of assay [8] is KMRC-1 (Kidney Carcinoma). The description is as above. The procedure, abridged: as §1
The test system of assay [9] is ME-180 (Cervical Carcinoma). The assay is described as above. A digest of the protocol:
as §1

The test system of assay [10] is ML-2 (Acute Myeloid Leukemia). The assay is described as above. A digest of the protocol: as §1
The subject of assay [11] is MOLT-4 (T-Lymphoblastic Leukemia). The assay is described as above. A digest of the protocol: as §1
The subject of assay [12] is MV-4-11 (Acute Myeloid Leukemia). The description is as above. A digest of the protocol:
as §1

For assay [13], the system named is Mo-T (Other Blood Carcinomas). The assay is described as above. The procedure, abridged:
as §1

The test system of assay [14] is NCI-H1355 (Lung Adenocarcinoma). Described as above. The procedure, abridged:
as §1

Assay [15] has as its system NCI-H1993 (Lung Adenocarcinoma). The assay is described as above. A digest of the protocol: as §1
For assay [16], the system named is NCI-H522 (Lung Adenocarcinoma). The description is as above. The procedure, abridged: as §1
Assay [17] has as its system OE33 (Esophageal Adenocarcinoma). Described as above. The procedure, abridged: as §1
The subject of assay [18] is SKN (Other Solid Carcinomas). Described as above. The procedure, abridged: as §1
In assay [19] the test system is SNU-387 (Hepatocellular Carcinoma). The description is as above. The procedure, abridged: as §1

Regarding `COc1cc2c(cc1OCCCCCOc1cc3c(cc1OC)C(=O)N1C=C(C)C[C@H]1C=N3)N=C[C@@H]1CC(C)=CN1C2=O` [SG3199] + O=C(c1cc(Cc2n[nH]c(=O)c3ccccc23)ccc1F)N1CCN(C(=O)C2CC2)CC1 [Olaparib] (first compound max 0.001 µM, 7x7, partner max 10 µM), the Bliss excess in the assay on COLO-679 (Melanoma) is -0.0285; in assay [1] it was -0.0361; in assay [2] it was -0.04; in [3] it was 0.0066; in assay [4], -0.0533. Further, the “combination Emax” value in assay [5] turned out to be 0.0833; in assay [6] it was 0.176; in assay [7] it was 0.475; in [8], 0.0927; in assay [9], 0.201; in assay [10] it was 0.436. Further, the “combination Emax” value in assay [11] came out at 0.402; in [12], 0.402; in assay [13], 0.322; in assay [14], 0.104; in assay [15], 0.0845; in [16] it was 0.144. The “combination Emax” value amounted to 0.0504 in assay [17], 0.0757 in [18] and 0.104 in [19].

For `N#Cc1cnc(Nc2cc(NC[C@H]3CNCCO3)c(C(F)(F)F)cn2)cn1` [SRA737] + C=CCn1c(=O)c2cnc(Nc3ccc(N4CCN(C)CC4)cc3)nc2n1-c1cccc(C(C)(C)O)n1 [AZD1775] (first compound max 10 µM, partner max 1 µM), the Bliss excess with COLO-679 (Melanoma) was -0.107; in assay [1], -0.0105; in assay [2] it was 0.0807; in [3] it was 0.0409; in assay [4], 0.03. Further, the “combination Emax” value came out at 0.846 in [5]; 0.431 in [6]; 0.812 in assay [7]; 0.54 in [8]; 0.541 in assay [9]; 1 in [10]. For the same compound, the “combination Emax” value in [11] came out at 1; in assay [12], 0.931; in [13], 0.565; in assay [14] it was 0.633; in assay [15] it was 0.88; in assay [16], 0.402. The “combination Emax” value in assay [17] was 0.765; in assay [18], 0.518; in assay [19] it was 0.465.

With `N#Cc1cnc(Nc2cc(NC[C@H]3CNCCO3)c(C(F)(F)F)cn2)cn1` [SRA737] + CCc1c2c(nc3ccc(O)cc13)-c1cc3c(c(=O)n1C2)COC(=O)[C@]3(O)CC [SN-38] (first compound max 10 µM, 7x7, partner max 0.3 µM), the Bliss excess in the assay on COLO-679 (Melanoma) was -0.13; in assay [1] it was -0.0338; in assay [2], -0.0554; in assay [3], -0.0337; in [4], 0.0321. The “combination Emax” value was found to be 0.992 in assay [5]; 0.541 in assay [6]; 0.836 in [7]; 0.525 in assay [8]; 0.95 in [9]; 1 in assay [10]. In addition, the “combination Emax” value in [11] is 1; in assay [12] it was 0.996; in assay [13], 0.821; in assay [14], 0.599; in [15], 0.835; in assay [16], 0.635. Also, the figures for the “combination Emax” value in assay [17], in assay [18] and in assay [19] were 0.8, 0.749 and 0.548, respectively.

Turning to `N#Cc1cnc(Nc2cc(NC[C@H]3CNCCO3)c(C(F)(F)F)cn2)cn1` [SRA737] + Nc1ccn([C@@H]2O[C@H](CO)[C@@H](O)C2(F)F)c(=O)n1 [Gemcitabine] (first compound max 10 µM, 7x7, partner max 0.3 µM), the Bliss excess in the assay on COLO-679 (Melanoma) was -0.0808; in assay [1], 0.0276; in assay [2], 0.0342; in assay [3], -0.0314; in assay [4] it was 0.102. Also, the “combination Emax” value amounted to 0.815 in assay [5]; 0.585 in assay [6]; 0.947 in [7]; 0.733 in [8]; 0.9 in assay [9]; 1 in assay [10]. The “combination Emax” value in assay [11] is 1; in assay [12], 1; in assay [13], 0.737; in assay [14], 0.644; in assay [15], 0.939; in assay [16] it was 0.855. In addition, the “combination Emax” value in assay [17] came out at 0.678; in assay [18], 0.729; in [19], 0.663.

Take `N#Cc1cnc(Nc2cc(NC[C@H]3CNCCO3)c(C(F)(F)F)cn2)cn1` [SRA737] + O=c1[nH]cc(F)c(=O)[nH]1 [5-Fluorouracil] (first compound max 10 µM, 7x7, partner max 20 µM): the Bliss excess was -0.148 in the assay on COLO-679 (Melanoma); 0.0735 in [1]; 0.002 in assay [2]; 0.004 in [3]; 0.0472 in assay [4]. Besides, the “combination Emax” value in [5] is 0.862; in [6] it was 0.313; in assay [7], 0.572; in [8], 0.543; in assay [9] it was 0.564; in assay [10], 0.963. The “combination Emax” value in [11] is 1; in [12], 0.967; in assay [13], 0.544; in assay [14], 0.517; in assay [15], 0.76; in [16], 0.0376. For the same compound, the “combination Emax” value in assay [17] is 0.721; in assay [18], 0.361; in assay [19] it was 0.364.

With `C[C@@H](c1ccc2nccn2c1)n1nnc2ncc(-c3cnn(C)c3)nc21` [Savolitinib] + CC1(C)CCC(CN2CCN(c3ccc(C(=O)NS(=O)(=O)c4ccc(NCC5CCOCC5)c([N+](=O)[O-])c4)c(Oc4cnc5[nH]ccc5c4)c3)CC2)=C(c2ccc(Cl)cc2)C1 [Venetoclax] (first compound max 1 µM, 7x7, partner max 1 µM), the Bliss excess in the assay with COLO-679 (Melanoma) is -0.0676; in assay [1], -0.0339; in assay [2] it was -0.0249; in assay [3] it was 0.0246; in assay [4], -0.106. For the same compound, the “combination Emax” value in assay [5] is 0.174; in [6], 0.212; in [7] it was 0.233; in assay [8], 0.141; in assay [9] it was 0.114; in [10] it was 0.46. Also, the “combination Emax” value in assay [11] is 0.476; in assay [12] it was 1; in assay [13], 0.114; in assay [14], 0.137; in assay [15] it was 0.754; in assay [16], 0.111. The “combination Emax” value in assay [17] was determined as 0.301; in assay [18], 0.169; in [19] it was 0.244.

Consider `C[C@@H](c1ccc2nccn2c1)n1nnc2ncc(-c3cnn(C)c3)nc21` [Savolitinib] + Cc1c2c(nn1C)CSCc1cc(n(C)n1)CSc1cc(c3ccccc3c1)OCCCc1c(C(=O)O)n(C)c3c-2c(Cl)ccc13 [AZD5991] (first compound max 1 µM, 7x7, partner max 1 µM), for which the Bliss excess in the assay with COLO-679 (Melanoma) is -0.0398; in [1] it was -0.0361; in assay [2], -0.0302; in assay [3], -0.034; in assay [4] it was -0.0858. The “combination Emax” value is 0.212 in assay [5]; 0.163 in [6]; 0.303 in assay [7]; 0.209 in assay [8]; 0.114 in [9]; 1 in assay [10]. Also, the “combination Emax” value in assay [11] worked out at 0.491; in [12] it was 1; in assay [13] it was 0.129; in [14], 0.207; in assay [15], 0.789; in assay [16], 0.281. The “combination Emax” value in [17] is 0.328; in [18], 0.219; in assay [19] it was 0.342.

(Values after the supplement of paper PMC11061612.)
